Test [1] concerns the target KSR2 (purified hKSR2-rMEK1 complex) (Homo sapiens (Human), UniProt Q6VAB6). The test is described as follows: ATP-biotin probe labeling and inhibitor competition (KSR2 band). In kind it is binding. The following applies: ATPbiotin probe labeling competition; 0.1 μM KSR2:MEK1; 27 nM to 20 μM compound; triplicate; read-out: KSR2 IC50. The text has this: Human KSR2 (residues 634-950) and rabbit MEK1 (residues 1 to 393) were codon optimized for insect cell expression by DNA 2.0. Inserts were expressed with TEV cleavable 6×-His tags from the pFastBac Dual expression vector. Bacmids were used to transfect adherent SF21 cells and viruses were subsequently titred to high levels through serial infections of SF21 cells. […] Briefly, following infections, cells were harvested, lysed, and affinity purified using Co2+ sepharose resin (GoldBio). […] Dialysis retentate was diluted 3 fold and then applied to a Resourse S ion exchange column. […] One-to-one hKSR2-MEK1 complexes were captured in late fractions from an increasing salt gradient. Complexes were later applied to a 120 mL Superdex 200 gel filtration column and finally concentrated to approximately 10 mg/mL before flash freezing for biochemical assays.
The ATP-biotin assay was performed in buffer containing 25 mM Tris pH 7.5, 150 mM NaCl, 10 mM MgCl2, and 2% DMSO. […] In particular, hKSR2-rMEK1 was pre-incubated with 20 μM of the indicated compounds for 15 minutes. Then, ATP-biotin (Pierce Cat. #88310) was added to a final concentration of 2 μM. Reactions were incubated at room temperature for 5 minutes before being stopped by the addition of 6×SDS loading dye. […] Enhanced chemiluminescence signals corresponding to labeling on KSR2 and MEK1 were visualized and quantified using the Biodoc system (Biorad). Relative signals of Streptavidin HRP on bands corresponding to KSR2 and MEK1 in the presence of compounds relative to DMSO controls were used to determine ‘Percent Inhibition of ATP Probe Labeling’.
For the ATP^biotin labeling competition screen, samples were applied to a 4-20% Tris-HCl gel, separated, and then transferred to a nitrocellulose membrane. The membrane was blocked with 5% bovine serum albumin diluted in TBS-T for 30 minutes and subsequently probed with the Pierce™ High Sensitivity Streptavidin-HRP. After several washes, the membranes were visualized using enhanced chemiluminescence on a Biodoc (Biorad).

Test [2] deals with KSR2^A690F:MEK1 phosphorylation by B-RAF (Homo sapiens (Human), UniProt Q6VAB6, A690F). The test is described as follows: RAF phosphorylation assay, KSR2^A690F:MEK1 substrate. It counts as biochemical. The following applies: 10 μM compound. Here is the method: FIGS. 9A-9C show phosphorylation of MEK1, KSR2:MEK1, and KSR2^A690F:MEK1 by B-RAF over time in the presence of Compound 21. Relative pMEK was determined by quantification of band intensities from western blots using Image Lab Software 4.1.
In particular, a variant of B-RAF was identified that could be expressed in high yield from E. Coli and which also retained near wild-type levels of kinase activity towards MEK1. For in vitro kinase assays, indicated concentrations of B-RAF and 1 μM KSR2-MEK1 or 1 μM MEK1 proteins were pre-incubated with 10 μM of indicated compounds for 15 minutes in buffer containing 25 mM Tris pH 7.5, 150 mM NaCl, 10 mM MgCl2, and 2% DMSO. Kinase reactions were initiated by the addition of 100 μM ATP and halted at the indicated times by the addition of 6×SDS loading dye. Samples were examined by western blotting as described for the ATP-biotin experiments and by probing overnight with a MEK1/2 Ser218-Ser222 phospho-specific antibody (Cell signaling). Membranes were visualized using enhanced chemiluminescence on a Biodoc (Biorad) for quantification purposes.

The subject of test [3] is ERK phosphorylation in SK-MEL-239 cell line. The test is described as follows: ERK phosphorylation dose response to trametinib, SK-MEL-239. In kind it is cell-based. To be noted: SK-MEL-239 (RAF-mutant).

For the compound `COc1cc2ncnc(Nc3ccc(Oc4ccccc4)cc3C)c2cc1OC` [Compound 21, 6,7-Dimethoxy-N-(2-methyl-4-phenoxyphenyl)quinazolin-4-amine 2,2,2-trifluoroacetate], in test [1], the IC50 (commonly the midpoint of a concentration-inhibition curve) amounted to 120 ± 23 nM. The “MEK phosphorylation by RAF, KSR2^A690F mutant” value in test [2] is “essentially inactive”. The “enhancement in the IC90 of trametinib on ERK phosphorylation” value in test [3] is listed as “not”.

These data come from patent US10548897B2, “KSR antagonists” (Icahn School of Medicine at Mount Sinai, priority 2015, dated 2020).
